The assay concerns the target T1, ΔF508-CFTR (Homo sapiens, UniProt P13569, DEL508-508).
T1 construct: expressed in transfected cells
Description: Membrane potential optical assay, identification of correction compounds (single-addition HTS format). The format is cell-based. As to conditions: PercentActivity; ΔF508-CFTR in NIH3T3 mouse fibroblasts; 16-24 hrs with compound; 10 μM forskolin and 20 μM genistein; read-out: BinnedMaxEfficacy. From the text:
Membrane Potential Optical Methods for Assaying ΔF508-CFTR Modulation Properties of Compounds.
The assay utilizes fluorescent voltage sensing dyes to measure changes in membrane potential using a fluorescent plate reader (e.g., FLIPR III, Molecular Devices, Inc.) as a readout for increase in functional ΔF508-CFTR in NIH 3T3 cells. The driving force for the response is the creation of a chloride ion gradient in conjunction with channel activation by a single liquid addition step after the cells have previously been treated with compounds and subsequently loaded with a voltage sensing dye.
To identify small molecules that correct the trafficking defect associated with ΔF508-CFTR; a single-addition HTS assay format was developed. Assay Plates containing cells are incubated for ˜2-4 hours in tissue culture incubator at 37° C., 5% CO2, 90% humidity. Cells are then ready for compound exposure after adhering to the bottom of the assay plates.
The cells were incubated in serum-free medium for 16-24 hrs in tissue culture incubator at 37° C., 5% CO2, 90% humidity in the presence or absence (negative control) of test compound. The cells were subsequently rinsed 3× with Krebs Ringers solution and loaded with a voltage sensing redistribution dye. To activate ΔF508-CFTR, 10 μM forskolin and the CFTR potentiator, genistein (20 μM), were added along with Cl^−-free medium to each well. The addition of Cl^−-free medium promoted Cl^− efflux in response to ΔF508-CFTR activation and the resulting membrane depolarization was optically monitored using voltage sensor dyes.
Bath Solution #1: (in mM) NaCl 160, KCl 4.5, CaCl2 2, MgCl2 1, HEPES 10, pH 7.4 with NaOH.
Chloride-free bath solution: Chloride salts in Bath Solution #1 are substituted with gluconate salts.
NIH3T3 mouse fibroblasts stably expressing ΔF508-CFTR are used for optical measurements of membrane potential. The cells are maintained at 37° C. in 5% CO2 and 90% humidity in Dulbecco's modified Eagle's medium supplemented with 2 mM glutamine, 10% fetal bovine serum, 1×NEAA, β-ME, 1×pen/strep, and 25 mM HEPES in 175 cm^2 culture flasks. For all optical assays, the cells were seeded at ˜20,000/well in 384-well matrigel-coated plates and cultured for 2 hrs at 37° C. before culturing at 27° C. for 24 hrs. for the potentiator assay. For the correction assays, the cells are cultured at 27° C. or 37° C. with and without compounds for 16-24 hours.

This note sets out measurements from patent publication US8889875B2, “Pyridyl derivatives as CFTR modulators” (Vertex Pharmaceuticals Incorporated, priority 2008, dated 2014).

Bounds are passed on as bounds.

T1 sequence (P13569 with tags, fused parts or gaps DEL508-508): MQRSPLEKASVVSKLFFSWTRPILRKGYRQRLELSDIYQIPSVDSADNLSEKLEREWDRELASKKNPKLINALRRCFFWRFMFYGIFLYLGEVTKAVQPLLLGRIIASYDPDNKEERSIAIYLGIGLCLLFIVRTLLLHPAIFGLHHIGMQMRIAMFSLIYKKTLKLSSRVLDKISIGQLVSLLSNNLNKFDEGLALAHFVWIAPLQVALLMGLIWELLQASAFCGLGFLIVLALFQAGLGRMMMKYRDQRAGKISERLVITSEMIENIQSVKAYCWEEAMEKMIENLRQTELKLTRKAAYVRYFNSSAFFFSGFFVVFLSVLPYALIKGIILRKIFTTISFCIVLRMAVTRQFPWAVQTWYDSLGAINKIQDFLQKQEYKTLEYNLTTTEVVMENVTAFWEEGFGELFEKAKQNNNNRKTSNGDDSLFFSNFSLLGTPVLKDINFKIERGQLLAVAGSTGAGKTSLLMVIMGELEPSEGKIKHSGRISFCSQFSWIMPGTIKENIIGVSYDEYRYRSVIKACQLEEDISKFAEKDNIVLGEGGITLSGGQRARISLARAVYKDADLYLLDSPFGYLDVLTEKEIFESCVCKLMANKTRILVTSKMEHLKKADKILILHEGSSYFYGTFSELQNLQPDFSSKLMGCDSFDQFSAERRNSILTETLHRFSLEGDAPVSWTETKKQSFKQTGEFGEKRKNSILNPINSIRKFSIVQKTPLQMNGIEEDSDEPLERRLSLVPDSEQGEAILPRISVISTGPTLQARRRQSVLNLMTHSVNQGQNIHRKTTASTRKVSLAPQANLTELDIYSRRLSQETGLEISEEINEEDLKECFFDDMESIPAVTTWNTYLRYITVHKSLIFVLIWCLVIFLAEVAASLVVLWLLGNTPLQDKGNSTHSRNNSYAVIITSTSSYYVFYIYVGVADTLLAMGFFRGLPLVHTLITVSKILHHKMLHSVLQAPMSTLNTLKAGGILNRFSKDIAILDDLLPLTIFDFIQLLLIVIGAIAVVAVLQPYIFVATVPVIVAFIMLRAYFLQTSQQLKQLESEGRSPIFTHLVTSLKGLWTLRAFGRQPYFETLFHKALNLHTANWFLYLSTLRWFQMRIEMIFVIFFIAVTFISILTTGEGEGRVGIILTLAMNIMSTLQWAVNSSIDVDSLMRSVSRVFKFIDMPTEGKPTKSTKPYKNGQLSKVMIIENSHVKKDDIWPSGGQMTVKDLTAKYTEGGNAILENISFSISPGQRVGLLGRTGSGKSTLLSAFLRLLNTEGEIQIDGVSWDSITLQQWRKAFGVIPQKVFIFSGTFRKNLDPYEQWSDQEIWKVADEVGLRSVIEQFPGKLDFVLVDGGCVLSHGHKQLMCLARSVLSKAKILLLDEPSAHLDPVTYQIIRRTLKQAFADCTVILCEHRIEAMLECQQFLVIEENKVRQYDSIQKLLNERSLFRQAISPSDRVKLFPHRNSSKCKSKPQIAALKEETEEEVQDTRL

With `N#Cc1ccc(NC(=O)C2(c3ccc4c(c3)OCO4)CC2)nc1` [Compound 65], the Emax lay within 25 to 100%.
Regarding `COc1ccccc1C(OCCCO)c1ccc(NC(=O)C2(c3ccc4c(c3)OCO4)CC2)nc1` (centres unmarked) [Compound 66], the Emax is greater than 100%.
For `O=C(Nc1cccc(CC2CCCCC2)n1)C1(c2ccc3c(c2)OCO3)CC1` [Compound 67], the Emax was greater than 100%.
As for `COc1ccccc1C(=O)c1ccc(NC(=O)C2(c3ccc4c(c3)OC(F)(F)O4)CC2)nc1` [Compound 68], the Emax is greater than 100%.
As for `O=C(Nc1ccccn1)C1(c2ccc3c(c2)OCO3)CC1` [Compound 69], the Emax is greater than 100%.
Take `COc1ccccc1C(=O)c1ccc(NC(=O)C2(c3ccc(C)cc3)CC2)nc1` [Compound 70]: the Emax is greater than 100%.
For `COc1ccccc1C(OCCN1CCCCC1)c1ccc(NC(=O)C2(c3ccc4c(c3)OCO4)CC2)nc1` (centres unmarked) [Compound 71], the Emax lay in the range of 25 to 100%.
In the case of `Cc1cccc(NC(=O)C2(c3ccc4c(c3)OCO4)CC2)n1` [Compound 72], the Emax was greater than 100%.
Take `Cc1ccc(NC(=O)C2(c3ccc4c(c3)OC(F)(F)O4)CC2)nc1NCc1ccccc1` [Compound 73]: the Emax was greater than 100%.
For `COc1ccccc1N(C)c1cccc(NC(=O)C2(c3ccc4c(c3)OCO4)CC2)n1` [Compound 74] the value was greater than 100%; for `CCc1ccnc(NC(=O)C2(c3ccc(OC)cc3)CC2)c1` [Compound 75], 25 to 100%; for `COc1ccccc1C(=O)c1ccc(NC(=O)C2(c3ccc(Cl)cc3)CC2)nc1` [Compound 76], greater than 100%.
In the case of `COc1ccccc1C(=O)c1ccc(NC(=O)C2(c3ccccc3)CC2)nc1` [Compound 77], the Emax is 25 to 100%.
In the case of `O=C(Nc1cccc(Cc2ccccc2Cl)n1)C1(c2ccc3c(c2)OCO3)CC1` [Compound 78] it was greater than 100%.
